{"source": "patent US20060089391A1", "about": "“Treatment of cancer in pediatric patients” (priority 2004, published 2006)", "key": {"[1]": {"assay": "Pharmacokinetic profiles of pediatric patients after oral dosing", "format": "in vivo, human", "conditions": "for area under the plasma concentration time curve / time of maximum plasma concentration: immediate release composition"}, "[2]": {"target": "biotinylated bovine brain tubulin", "conditions": "competition of [3H]colchicine"}, "neuroblastoma": {"system": "neuroblastoma", "assay": "Clinical response in pediatric patients with neuroblastoma", "format": "in vivo, human", "from_the_text": "Patients (n=19) with neuroblastoma have experienced time-to-disease progresson with a median progression free survival (FPS) of 20 weeks."}, "[3]": {"conditions": "one 75 mg per mm^2 per day oral dose for 21 days"}, "[4]": {"conditions": "one 100 mg per mm^2 per day oral dose for 21 days"}, "[5]": {"conditions": "one 130 mg per mm^2 per day oral dose for 21 days"}, "[6]": {"conditions": "one 165 mg per mm^2 per day oral dose for 21 days"}, "[7]": {"conditions": "one 200 mg per mm^2 per day oral dose for 21 days"}, "[8]": {"conditions": "one 250 mg per mm^2 per day oral dose for 21 days"}}, "note": "Like-named read-outs stand apart in the source and are kept apart here.", "data": [{"smiles": "COc1ccc(S(=O)(=O)Nc2cccnc2Nc2ccc(O)cc2)cc1", "note": "[ABT-751, N-(2-((4-hydroxyphenyl)amino)pyrid-3-yl)-4-methoxybenzenesulfonamide]", "values": [{"measurement": "Tmax", "setting": "[1]; 250 mg/mm^2/d QD oral", "result": 2.0, "unit": "h"}, {"measurement": "Tmax", "setting": "[1]; human, in vivo, 200 QD oral, mean±SD, read-out: Tmax", "result": "3 ± 1.7", "unit": "h"}, {"measurement": "Cmax", "setting": "[1]; human, plasma, 75 QD oral, mean±SD", "result": "8000 ± 1700", "unit": "ng/mL"}, {"measurement": "Tmax", "setting": "[1]; human, plasma, 75 QD oral, mean±SD, read-out: Tmax", "result": "2.7 ± 0.6", "unit": "h"}, {"measurement": "Cmax", "setting": "[1]; human, plasma, 100 QD oral, mean±SD", "result": "10600 ± 3000", "unit": "ng/mL"}, {"measurement": "Tmax", "setting": "[1]; human, plasma, 100 QD oral, mean±SD, read-out: Tmax", "result": "1.9 ± 1", "unit": "h"}, {"measurement": "Cmax", "setting": "[1]; human, plasma, 130 QD oral, mean±SD", "result": "10800 ± 2900", "unit": "ng/mL"}, {"measurement": "Tmax", "setting": "[1]; human, plasma, 130 QD oral, mean±SD, read-out: Tmax", "result": "2.2 ± 0.8", "unit": "h"}, {"measurement": "Cmax", "setting": "[1]; human, plasma, 165 QD oral, mean±SD", "result": "13500 ± 4600", "unit": "ng/mL"}, {"measurement": "Tmax", "setting": "[1]; human, plasma, 165 QD oral, mean±SD, read-out: Tmax", "result": "3 ± 1.7", "unit": "h"}, {"measurement": "Cmax", "setting": "[1]; human, plasma, 200 QD oral, mean±SD", "result": "16900 ± 8100", "unit": "ng/mL"}, {"measurement": "Cmax", "setting": "[1]; human, plasma, 250 QD oral, mean±SD", "result": "23300 ± 6500", "unit": "ng/mL"}, {"measurement": "area under the plasma concentration time curve", "setting": "[1]; [3]", "result": "52000 ± 21000", "unit": "ng·h/mL"}, {"measurement": "time of maximum plasma concentration", "setting": "[1]; [3]", "result": "2.7 ± 0.6", "unit": "h"}, {"measurement": "area under the plasma concentration time curve", "setting": "[1]; [4]", "result": "60000 ± 19000", "unit": "ng·h/mL"}, {"measurement": "time of maximum plasma concentration", "setting": "[1]; [4]", "result": "1.9 ± 1", "unit": "h"}, {"measurement": "area under the plasma concentration time curve", "setting": "[1]; [5]", "result": "62000 ± 19000", "unit": "ng·h/mL"}, {"measurement": "time of maximum plasma concentration", "setting": "[1]; [5]", "result": "2.2 ± 0.8", "unit": "h"}, {"measurement": "area under the plasma concentration time curve", "setting": "[1]; [6]", "result": "90000 ± 27000", "unit": "ng·h/mL"}, {"measurement": "time of maximum plasma concentration", "setting": "[1]; [6]", "result": "3 ± 1.7", "unit": "h"}, {"measurement": "area under the plasma concentration time curve", "setting": "[1]; [7]", "result": "91000 ± 24000", "unit": "ng·h/mL"}, {"measurement": "time of maximum plasma concentration", "setting": "[1]; [7]", "result": "3 ± 1.7", "unit": "h"}, {"measurement": "area under the plasma concentration time curve", "setting": "[1]; [8]", "result": "129000 ± 23000", "unit": "ng·h/mL"}, {"measurement": "time of maximum plasma concentration", "setting": "[1]; [8]", "result": 2, "unit": "h"}, {"measurement": "Ki", "setting": "[2]", "result": 2.6, "unit": "µM"}, {"measurement": "clinical outcome of a single patient", "setting": "neuroblastoma; patient with neuroblastoma, 100 mg/mm^2/d on the daily x7 schedule", "result": "disease stabilization after 44 cycles"}, {"measurement": "median progression free survival (FPS)", "setting": "neuroblastoma; patients (n=19) with neuroblastoma", "result": 20, "unit": "weeks"}]}, {"smiles": "CC[C@]1(O)C[C@@H]2CN(CCc3c([nH]c4ccccc34)[C@@](C(=O)OC)(c3cc4c(cc3OC)N(C)[C@H]3[C@@](O)(C(=O)OC)[C@H](OC(C)=O)[C@]5(CC)C=CCN6CC[C@]43[C@@H]65)C2)C1", "note": "[vinblastine]", "values": [{"measurement": "Ki", "setting": "[2]", "result": "> 100", "unit": "µM"}]}]}
